Reference: patent US10207985B2, “Compounds” (SYNGENTA PARTICIPATIONS AG, priority 2013, dated 2019)

Cc1ccsc1C1CC[C@H]1NC(=O)c1ccccc1C(F)(F)F (stereo partly shown) [Compound 116-4]
melting point: 111 to 112 °C
